# Results: ChEMBL document CHEMBL1151152, “7-deoxy-6-epi-castanospermine, a trihydroxyindolizidine alkaloid glycosidase inhibitor from Castanospermum australe” (J Nat Prod, 1990)
# The source made the active and inactive calls. No cut-off for these calls is given here.
# What was measured:
# [1] = system: Aspergillus niger; assay: Inhibition of Aspergillus niger amyloglucosidase by competitive inhibition-based kinetic assay
# [2] = system: Aspergillus niger; assay: Inhibition of Aspergillus niger amyloglucosidase at 7 uM by competitive inhibition-based kinetic assay
# [3] = species: Bos taurus; assay: Inhibition of bovine epididymis beta-N-acetylglucosaminidase B up to 1 mM
# [4] = system: Aspergillus niger; assay: Inhibition of Aspergillus niger beta-xylosidase up to 1 mM
# [5] = target: T1, Beta-glucuronidase (Bos taurus) (UniProt A3KMY8); assay: Inhibition of bovine liver beta-glucuronidase up to 1 mM
# T1 sequence (whole entry): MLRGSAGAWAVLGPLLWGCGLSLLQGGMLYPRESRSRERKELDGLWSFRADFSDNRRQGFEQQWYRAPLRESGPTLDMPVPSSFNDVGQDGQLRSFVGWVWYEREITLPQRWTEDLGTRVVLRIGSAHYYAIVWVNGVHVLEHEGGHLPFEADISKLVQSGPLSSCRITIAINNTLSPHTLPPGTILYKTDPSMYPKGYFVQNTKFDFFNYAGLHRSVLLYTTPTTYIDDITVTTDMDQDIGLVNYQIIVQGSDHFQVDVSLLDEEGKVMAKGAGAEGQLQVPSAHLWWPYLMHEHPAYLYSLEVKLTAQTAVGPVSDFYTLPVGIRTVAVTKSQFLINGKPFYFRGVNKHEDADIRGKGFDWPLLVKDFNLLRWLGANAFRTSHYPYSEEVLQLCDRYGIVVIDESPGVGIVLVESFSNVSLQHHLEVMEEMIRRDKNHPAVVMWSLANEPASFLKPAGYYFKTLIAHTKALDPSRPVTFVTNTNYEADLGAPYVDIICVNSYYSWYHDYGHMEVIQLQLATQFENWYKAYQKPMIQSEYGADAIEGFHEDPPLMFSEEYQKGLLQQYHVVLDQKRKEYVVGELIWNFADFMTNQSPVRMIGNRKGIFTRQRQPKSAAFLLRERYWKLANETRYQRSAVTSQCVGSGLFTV
# [6] = target: Sucrase-isomaltase, intestinal (Rattus norvegicus) (UniProt P23739); assay: Inhibition of Sprague-Dawley rat small intestine sucrase at 1 mM
# [7] = target: Sucrase-isomaltase, intestinal (Rattus norvegicus) (UniProt P23739); assay: Inhibition of Sprague-Dawley rat small intestine sucrase
# [8] = species: Bos taurus; assay: Inhibition of bovine liver beta-galactosidase
# [9] = system: Aspergillus niger; assay: Inhibition of Aspergillus niger alpha-galactosidase up to 1 mM
# [10] = system: Vigna radiata var. radiata; assay: Inhibition of mung bean seedlings glucosidase 1
# [11] = system: Aspergillus niger; assay: Inhibition of Aspergillus niger amyloglucosidase at 230 uM by competitive inhibition-based kinetic assay
# [12] = system: Canavalia ensiformis; assay: Inhibition of jack bean alpha-mannosidase up to 1 mM
# [13] = system: Saccharomyces cerevisiae; assay: Inhibition of yeast alpha-glucosidase
# [14] = system: Prunus dulcis; assay: Inhibition of almond beta-glucosidase up to 1 mM
# [15] = system: Aspergillus niger; assay: Inhibition of Aspergillus niger alpha-mannosidase up to 1 mM
# [16] = species: Bos taurus; assay: Inhibition of bovine liver beta-galactosidase at 1 mM
# [17] = system: Saccharomyces cerevisiae; assay: Inhibition of yeast alpha-glucosidase at 1 mM
# [18] = species: Bos taurus; assay: Inhibition of bovine kidney alpha-L-fucosidase up to 1 mM
# [19] = system: Vigna radiata var. radiata; assay: Inhibition of mung bean seedlings glucosidase 1 at 1 mM
# [20] = system: Vigna radiata var. radiata; assay: Inhibition of mung bean seedlings glucosidase 2 up to 1 mM
# [21] = system: Aspergillus niger; assay: Inhibition of Aspergillus niger amyloglucosidase at 20 uM by competitive inhibition-based kinetic assay
# Sucrase-isomaltase, intestinal (Rattus norvegicus), sequence (P23739 1-1013 limits assumed): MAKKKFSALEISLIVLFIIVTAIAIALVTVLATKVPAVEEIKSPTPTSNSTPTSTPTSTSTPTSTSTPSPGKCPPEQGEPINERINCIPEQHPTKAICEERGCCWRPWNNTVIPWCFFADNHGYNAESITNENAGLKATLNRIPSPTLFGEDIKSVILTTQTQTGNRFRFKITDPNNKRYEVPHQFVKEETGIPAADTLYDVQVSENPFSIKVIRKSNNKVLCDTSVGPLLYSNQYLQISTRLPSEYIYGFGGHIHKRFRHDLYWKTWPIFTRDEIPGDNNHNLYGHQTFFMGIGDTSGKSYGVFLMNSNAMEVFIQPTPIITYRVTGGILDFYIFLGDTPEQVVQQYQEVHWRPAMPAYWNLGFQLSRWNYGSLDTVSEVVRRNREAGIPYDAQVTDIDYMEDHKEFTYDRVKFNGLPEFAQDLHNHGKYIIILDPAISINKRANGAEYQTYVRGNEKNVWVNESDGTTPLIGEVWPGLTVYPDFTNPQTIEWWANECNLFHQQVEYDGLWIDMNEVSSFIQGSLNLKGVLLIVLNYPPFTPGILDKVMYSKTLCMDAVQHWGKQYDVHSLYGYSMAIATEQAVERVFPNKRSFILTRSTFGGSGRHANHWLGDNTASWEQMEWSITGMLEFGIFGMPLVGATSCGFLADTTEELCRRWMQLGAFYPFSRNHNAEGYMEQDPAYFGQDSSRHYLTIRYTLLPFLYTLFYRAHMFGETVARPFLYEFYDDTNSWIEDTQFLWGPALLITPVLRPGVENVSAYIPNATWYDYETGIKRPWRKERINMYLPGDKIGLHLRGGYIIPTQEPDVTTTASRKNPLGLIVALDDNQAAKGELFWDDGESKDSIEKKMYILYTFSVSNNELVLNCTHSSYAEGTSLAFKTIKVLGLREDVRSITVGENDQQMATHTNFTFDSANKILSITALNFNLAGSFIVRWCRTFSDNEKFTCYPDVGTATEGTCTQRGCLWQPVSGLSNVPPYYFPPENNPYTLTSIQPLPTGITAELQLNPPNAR
# Sucrase-isomaltase, intestinal (Rattus norvegicus), sequence (P23739 1014-1841 limits assumed): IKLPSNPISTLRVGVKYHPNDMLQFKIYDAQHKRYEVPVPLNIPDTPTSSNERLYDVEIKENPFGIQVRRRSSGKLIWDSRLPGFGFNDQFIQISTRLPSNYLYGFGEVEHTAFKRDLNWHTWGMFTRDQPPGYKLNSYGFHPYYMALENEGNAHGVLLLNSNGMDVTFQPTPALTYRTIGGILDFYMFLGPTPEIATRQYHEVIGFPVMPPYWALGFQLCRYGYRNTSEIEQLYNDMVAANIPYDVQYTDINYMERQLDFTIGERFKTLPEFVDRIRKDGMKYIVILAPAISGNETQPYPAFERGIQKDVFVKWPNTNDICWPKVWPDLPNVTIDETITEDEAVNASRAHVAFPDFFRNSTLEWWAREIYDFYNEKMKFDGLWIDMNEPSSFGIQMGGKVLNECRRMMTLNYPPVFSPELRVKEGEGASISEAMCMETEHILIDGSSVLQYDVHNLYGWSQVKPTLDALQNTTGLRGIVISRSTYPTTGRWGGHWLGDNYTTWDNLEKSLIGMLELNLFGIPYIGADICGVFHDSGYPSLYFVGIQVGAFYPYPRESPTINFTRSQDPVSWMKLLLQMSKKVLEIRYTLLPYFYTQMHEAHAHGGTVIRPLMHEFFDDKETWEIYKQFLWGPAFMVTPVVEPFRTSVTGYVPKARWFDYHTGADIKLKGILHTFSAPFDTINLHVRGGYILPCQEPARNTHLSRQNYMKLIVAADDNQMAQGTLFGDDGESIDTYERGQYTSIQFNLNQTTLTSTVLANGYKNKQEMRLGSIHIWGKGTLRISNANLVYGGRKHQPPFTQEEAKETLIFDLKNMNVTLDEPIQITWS
compound,measurement,setting,value
O[C@H]1[C@H](O)[C@@H](O)CN2CC[C@H](O)[C@H]12,Activity,[1],Active
same,inhibition,[2],50%
O[C@H]1C[C@H](O)[C@H]2[C@@H](O)CCN2C1,Activity,[1],Active
same,Activity,[3],inactive
same,Activity,[4],inactive
same,Activity,[5],inactive
same,inhibition,[6],30%
same,Activity,[7],Active
same,Activity,[8],Active
same,Activity,[9],inactive
same,Activity,[10],Active
same,inhibition,[11],50%
same,Activity,[12],inactive
same,Activity,[13],Active
same,Activity,[14],inactive
same,Activity,[15],inactive
same,inhibition,[16],20%
same,inhibition,[17],50%
same,Activity,[18],inactive
same,inhibition,[19],35%
same,Activity,[20],inactive
O[C@H]1[C@H](O)[C@H](O)CN2CC[C@H](O)[C@H]12,Activity,[1],Active
same,inhibition,[21],50%
